Measurements taken from US20230382926A1, “COMPOUNDS AND USES THEREOF” (The University of The West Indies, priority 2022, published 2023).

Experiments:
Type in all cases: cell-based
[1] = system: Enterobacter cloacae ATCC BAA-1143; experiment: Rescue concentration, modified checkerboard MIC adjuvant assay; details: E. cloacae ATCC BAA-1143; for Rescue concentration, Amp (8): Amp at susceptible breakpoint 8 μg mL^−1; for Rescue concentration, Azi (16): Azi at susceptible breakpoint 16 μg mL^−1; for Rescue concentration, Ceph (8): Ceph at susceptible breakpoint 8 μg mL^−1; for Rescue concentration, Chl (8): Chl at susceptible breakpoint 8 μg mL^−1; for Rescue concentration, Col (8): Col at susceptible breakpoint 8 μg mL^−1; for Rescue concentration, Dox (4): Dox at susceptible breakpoint 4 μg mL^−1; for Rescue concentration, Gen (4): Gen at susceptible breakpoint 4 μg mL^−1; for Rescue concentration, Imi (1): Imi at susceptible breakpoint 1 μg mL^−1; for Rescue concentration, Tet (4): Tet at susceptible breakpoint 4 μg mL^−1
In short: (§1)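 Modified checkerboard: antibiotic fixed at CLSI M100 susceptible breakpoint with twofold dilutions of SP-azaBIM, against 10^6 CFU/ml in cation-adjusted MHB, 24 h at 35 °C aerobically; only antibiotics to which the strain is resistant tested. Rescue concentration is the lowest adjuvant level giving 99.99% growth reduction by visual read.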

[2] = system: Pseudomonas aeruginosa MDR 5805; experiment: as above; details: P. aeruginosa MDR 5805; for Rescue concentration, Amox (8): Amox at susceptible breakpoint 8 μg mL^−1; for Rescue concentration, Col (2): Col at susceptible breakpoint 2 μg mL^−1; for Rescue concentration, Gen (4): Gen at susceptible breakpoint 4 μg mL^−1; for Rescue concentration, Imi (2): Imi at susceptible breakpoint 2 μg mL^−1; for Rescue concentration, Mero (2): Mero at susceptible breakpoint 2 μg mL^−1; for Rescue concentration, Pol B (2): Pol B at susceptible breakpoint 2 μg mL^−1
In short: as §1

K. pneumoniae = experiment: Rescue concentration of substituted phenyl azaindole derivatives; details: for Rescue concentration, K. pneumoniae Ciprofloxacin (1 μg/mL): Ciprofloxacin fixed at 1 μg/mL; for Rescue concentration, K. pneumoniae Imipenem (1 μg/mL): Imipenem fixed at 1 μg/mL
In short: (§2)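 Modified checkerboard MIC: fixed CLSI susceptible-breakpoint antibiotic concentration plus twofold dilution series of SP-azaBIM, 10^6 CFU/ml in ca-MHB, 35° C, 24 h aerobic. Only antibiotics to which the strain was resistant were tested. Rescue concentration = lowest compound concentration giving 99.99% growth reduction (visual) at breakpoint.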

P. aeruginosa = experiment: as above; details: Imipenem fixed at 1 μg/mL
In short: as §2

[3] = system: Multidrug resistant Pseudomonas aeruginosa; experiment: Broth microdilution minimum inhibitory concentration; details: compound alone
In short: (§3)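 Broth microdilution followed CLSI M07-A10, using 11 two-fold dilutions (top 1028 μg/mL, 2% DMSO final) and an inoculum of 2×10^5 to 8×10^5 CFU/mL. Wells were scored visually. MIC is the lowest concentration with no growth, tested in duplicate.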

[4] = system: Carbapenem resistant Klebsiella pneumoniae; experiment: as above; details: compound alone
In short: as §3

[5] = system: Methicillin resistant Staphylococcus aureus; experiment: as above; details: compound alone
In short: as §3

[6] = system: Carbapenem resistant Acinetobacter baumannii; experiment: as above; details: compound alone
In short: as §3

[7] = system: Vancomycin resistant Enterococcus faecalis; experiment: as above; details: compound alone
In short: as §3

Row | SMILES | Rescue concentration, Amp (8) [1] [µg/mL] | Rescue concentration, Azi (16) [1] [µg/mL] | Rescue concentration, Ceph (8) [1] [µg/mL] | Rescue concentration, Chl (8) [1] [µg/mL] | Rescue concentration, Col (8) [1] [µg/mL] | Rescue concentration, Dox (4) [1] [µg/mL] | Rescue concentration, Gen (4) [1] [µg/mL] | Rescue concentration, Imi (1) [1] [µg/mL] | Rescue concentration, Tet (4) [1] [µg/mL] | Rescue concentration, Amox (8) [2] [µg/mL] | Rescue concentration, Col (2) [2] [µg/mL] | Rescue concentration, Gen (4) [2] [µg/mL] | Rescue concentration, Imi (2) [2] [µg/mL] | Rescue concentration, Mero (2) [2] [µg/mL] | Rescue concentration, Pol B (2) [2] [µg/mL] | Rescue concentration, K. pneumoniae Ciprofloxacin (1 μg/mL) (K. pneumoniae) [µg/mL] | Rescue concentration, K. pneumoniae Imipenem (1 μg/mL) (K. pneumoniae) [µg/mL] | Rescue concentration, P. aeruginosa Imipenem (1 μg/mL) (P. aeruginosa) [µg/mL] | MIC [3] [µg/mL] | MIC [4] [µg/mL] | also measured
1 | Oc1ccc(C(c2c[nH]c3ncccc23)c2c[nH]c3ncccc23)cc1 [SP-7azaBIM 135, 4-(bis(1H-pyrrolo[2,3-b]pyridin-3-yl)methyl)phenol] | 64 | >128 | >128 | >128 | 64 | >128 | >128 | 32 | >128 | 64 | >128 | >128 | >128 | >128 | >128 |  |  |  |  |  | 
2 | Brc1ccc(C(c2c[nH]c3ncccc23)c2c[nH]c3ncccc23)cc1 [SP-7azaBIM 126, 3,3′-((4-bromophenyl)methylene)bis(1H-pyrrolo[2,3-b]pyridine)] | 128 | >128 | >128 | >128 | >128 | >128 | >128 | >128 | >128 | >128 | >128 | >128 | >128 | >128 | >128 |  |  |  |  |  | 
3 | Brc1ccc(C(c2c[nH]c3cnccc23)c2c[nH]c3cnccc23)cc1 [SP-6azaBIM 125, 3,3′-((4-bromophenyl)methylene)bis(1H-pyrrolo[2,3-c]pyridine)] | 32 | >128 | >128 | >128 | >128 | >128 | >128 | >128 | >128 | 128 | >128 | 16 | >128 | >128 | >128 | 4 | 4 | 32 | < 1020 | < 1020 | MIC [5]: < 1020 µg/mL; MIC [6]: < 1020 µg/mL; MIC [7]: < 1020 µg/mL
4 | Oc1ccc(C(c2c[nH]c3cnccc23)c2c[nH]c3cnccc23)cc1 [SP-6azaBIM 136, 4-(bis(1H-pyrrolo[2,3-c]pyridin-3-yl)methyl)phenol] | 16 | 16 | 16 | 32 | 16 | 4 | 8 | 4 | 4 | 2 | 4 | 4 | 2 | 2 | 4 | <256 | <256 | 256 | < 1020 | < 1020 | MIC [5]: < 1020 µg/mL; MIC [6]: < 1020 µg/mL; MIC [7]: < 1020 µg/mL
